These results are taken from patent US6642215B2 (Leo Pharma A/S, priority 2001, dated 2003).

The assay has as its system NF-κB. The assay can be described thus: NF-κB-dependent luciferase assay in HT-1080 cells, TNF-α stimulation. The settings on record: Homo sapiens, compound 24 h before TNF-α 50 ng/ml 6 h, mean ± SD. Type of assay: cell-based, human. As to the method: The NF-κB-luciferase reporter plasmid (pBIIX) and pRL-TK control vector described in Example 1 were used for the luciferase assay,
The HT-1080 cells were seeded at a density of 3×10^4 cells/cm^2 in 6 well-plates. The following day, the cells were co-transfected with construct DNA and pRL-TK vector using FuGene Transfection Reagent. A mixture of 10 μl Fugene and 90 μl serum free medium (per well) was prepared and Incubated for 5 min at room temperature. Then, this mixture was transferred to a mixture of construct DNA (1.25 μg per well) and pRL-TK vector (0.25 μg per well), gently mixed, incubated for 15 min at room temperature and added to the cells. The cells were treated at 37° C. with compound A (10^−12−10^−5 M) or DMSO for 24 h before stimulation with TNF-α (50 ng/ml) for 6 h.
The cell lysate was assayed for luciferase activity using the Dual luciferase kit as described by the manufacturer (Promega). All transfections were performed in triplicate. Firefly luciferase activity was corrected for differences in transfection efficiency by normalizing it to the measured Renilla luciferase activity.
NF-κB activity was measured by the luciferase assay described in Example 1.

A word on the IC50: it is the point on the concentration scale where inhibition reaches its midpoint. A low value points to greater potency. As to `N#CNC(=Nc1ccncc1)NCCCCCCOc1ccc(Cl)cc1` [compound A, N-(6-(4-chlorophenoxy)hexyl)-N′-cyano-N″-(4-pyridyl)guanidine], the IC50 stood at 2480 ± 775 nM.
